{"source": "patent US11841367B2", "about": "“TLR agonist-enhanced in vitro assay of cell mediated immune responsiveness” (Cellestis Limited, priority 2011, dated 2023)", "format_in_all_cases": "cell-based, human", "key": {"whole blood [1]": {"test_system": "whole blood", "assay": "Clinical study: QFT-TB response with added R848 in TB patients, TB suspects and household contacts", "conditions": "for effect on QFT-TB response: subjects positive to QFT-TB test alone"}, "whole blood [2]": {"test_system": "whole blood", "assay": "IFN-γ responses of whole blood in QFT-Nil tubes with EBV EBNA1 pepMix plus R848", "conditions": "for IFNγ response to antigen+R848 minus background to R848 alone, Mean: 16-24 hours"}, "whole blood [3]": {"test_system": "whole blood", "assay": "IFN-γ responses of whole blood in QFT-CMV tubes plus R848", "conditions": "for IFNγ response to antigen+R848 minus background to R848 alone, Mean: 16-24 hours"}, "whole blood [4]": {"test_system": "whole blood", "assay": "Background IFN-γ responses to R848 alone in QFT-Nil tubes (whole blood, ELISA)", "conditions": "for IFNγ concentration of the plasma, background response, Mean: QFT-Nil tube, 1 ml whole blood, 37° C., 16-24 hours"}}}
{"smiles": "CCOCc1nc2c(N)nc3ccccc3c2n1CC(C)(C)O", "note": "[R848]", "values": [{"measurement": "effect on QFT-TB response", "setting": "whole blood [1]; R848 0.05 μg/ml, P<0.001", "result": "significantly enhanced"}, {"measurement": "effect on QFT-TB response", "setting": "whole blood [1]; R848 0.1 μg/ml, P<0.0001", "result": "significantly enhanced"}, {"measurement": "patients negative with the current QFT-TB tube who became positive when R848 was added", "setting": "whole blood [1]; both R848 concentrations tested, both patients TB suspects", "result": "Two"}, {"measurement": "boost in EBV responses", "setting": "whole blood [2]; 0.05 μg/ml R848 added to EBV EBNA1 peptide pool", "result": "significant boost"}, {"measurement": "IFNγ response to antigen+R848 minus background to R848 alone, Mean", "setting": "whole blood [2]; 0.5 μg/ml EBV EBNA 1 pepMix + 0.01 μg/ml R848, whole blood", "result": 2.857, "unit": "IU/ml"}, {"measurement": "IFNγ response to antigen+R848 minus background to R848 alone, Mean", "setting": "whole blood [2]; 0.5 μg/ml EBV EBNA 1 pepMix + 0.05 μg/ml R848, whole blood", "result": 18.32, "unit": "IU/ml"}, {"measurement": "IFNγ response to antigen+R848 minus background to R848 alone, Mean", "setting": "whole blood [2]; 0.5 μg/ml EBV EBNA 1 pepMix + 0.1 μg/ml R848, whole blood", "result": 29.57, "unit": "IU/ml"}, {"measurement": "responses to the antigen-R848 combined stimuli versus sum of separate responses", "setting": "whole blood [2]; EBV and CMV antigens, whole blood", "result": "greater than that seen by adding together the responses to the antigen and R848 alone individually"}, {"measurement": "boost in responses in QFT-CMV tubes", "setting": "whole blood [3]; 0.05 μg/ml R848 added", "result": "not as large as that seen for EBV"}, {"measurement": "boost in responses in QFT-CMV tubes", "setting": "whole blood [3]; 0.1 μg/ml R848 added", "result": "much greater"}, {"measurement": "IFNγ response to antigen+R848 minus background to R848 alone, Mean", "setting": "whole blood [3]; QFT-CMV tube + 0.05 μg/ml R848, whole blood", "result": 15.96, "unit": "IU/ml"}, {"measurement": "IFNγ response to antigen+R848 minus background to R848 alone, Mean", "setting": "whole blood [3]; QFT-CMV tube + 0.1 μg/ml R848, whole blood", "result": 79.53, "unit": "IU/ml"}, {"measurement": "background responses to R848 alone", "setting": "whole blood [4]; 0.1 μg/ml R848, QFT-Nil tubes", "result": "significant background responses seen in many donors"}, {"measurement": "IFNγ concentration of the plasma, background response, Mean", "setting": "whole blood [4]; R848 0.01 μg/ml alone", "result": "−0.009677 1 U/ml"}, {"measurement": "IFNγ concentration of the plasma, background response, Mean", "setting": "whole blood [4]; R848 0.02 μg/ml alone", "result": "0.0100 1 U/ml"}, {"measurement": "IFNγ concentration of the plasma, background response, Mean", "setting": "whole blood [4]; R848 0.025 μg/ml alone", "result": "0.0330 1 U/ml"}, {"measurement": "IFNγ concentration of the plasma, background response, Mean", "setting": "whole blood [4]; R848 0.03 μg/ml alone", "result": "0.0925 1 U/ml"}, {"measurement": "IFNγ concentration of the plasma, background response, Mean", "setting": "whole blood [4]; R848 0.04 μg/ml alone", "result": "0.5144 1 U/ml"}, {"measurement": "IFNγ concentration of the plasma, background response, Mean", "setting": "whole blood [4]; R848 0.05 μg/ml alone", "result": "1.084 1 U/ml"}, {"measurement": "IFNγ concentration of the plasma, background response, Mean", "setting": "whole blood [4]; R848 0.1 μg/ml alone", "result": "21.58 1 U/ml"}, {"measurement": "background responses to R848 alone", "setting": "whole blood [4]; below 0.05 μg/ml R848, QFT-Nil tubes", "result": "not significant"}]}
